US9790217B2, “Pyridinyloxy- and phenyloxy-pyrazolyl compounds” (Hoffmann-La Roche Inc., priority 2014, dated 2017)

Columns and labels:
human CYP11B1 = human CYP11B1 (Homo sapiens (Human), UniProt P15538); experiment: G-402 cellular enzyme assay, human CYP11B1 (cortisol release, HTRF); assay type: cell-based; conditions: G-402 cells expressing human CYP11B1; 1 μM Deoxycortisol
Description: (§1) Herein we identified the use of the G-402 cell line as a host cell to ectopically express (transiently or stably) enzymes of the CYP11 family. Specifically we developed stable G-402 cells expressing ectopically human CYP11B1, human CYP11B2, human CYP11A1, cynmolgus CYP11B1 or cynomolgus CYP11B2 enzyme activity. Importantly the identified cell line G-402 expresses co-factors (adrenodoxin and adrenodoxin reductase) important for the activity of the CYP11 family and no relevant enzyme activity of the CYP11 family (in comparison to H295R cells) was detected in these cells. Therefore the G-402 cell line is uniquely suited as a host cell for the ectopic expression of enzymes from the CYP11 family.
(§2) G-402 cells can be obtained from ATCC (CRL-1440) and were originally derived from a renal leiomyoblastoma.
(§3) The expression plasmids contains the ORF for either human/cyno CYP11B1 or CYP11B2 under the control of a suitable promoter (CMV-promoter) and a suitable resistance marker (neomycin). Using standard techniques the expression plasmid is transfected into G-402 cells and these cells are then selected for expressing the given resistance markers. Individual cell-clones are then selected and assessed for displaying the desired enzymatic activity using 11-Deoxycorticosterone (Cyp11B2) or 11-Deoxycortisol (Cyp11B1) as a substrate.
(§4) G-402 cells expressing CYP11 constructs were established as described above and maintained in McCoy's 5a Medium Modified, ATCC Catalog No. 30-2007 containing 10% FCS and 400 μg/ml G418 (Geneticin) at 37° C. under an atmosphere of 5% CO2/95% air. Cellular enzyme assays were performed in DMEM/F12 medium containing 2.5% charcoal treated FCS and appropriate concentration of substrate (0.3-10 uM 11-Deoxycorticosterone, 11-Deoxycortisol or Corticosterone). For assaying enzymatic activity, cells were plated onto 96 well plates and incubated for 16 h. An aliquot of the supernatant is then transferred and analyzed for the concentration of the expected product (Aldosterone for CYP11B2; Cortisol for CYP11B1). The concentrations of these steroids can be determined using HTRF assays from CisBio analyzing either Aldosterone or Cortisol.
(§5) Inhibition of the release of produced steroids can be used as a measure of the respective enzyme inhibition by test compounds added during the cellular enzyme assay. The dose dependent inhibition of enzymatic activity by a compound is calculated by means of plotting added inhibitor concentrations (x-axes) vs. measured steroid/product level (y-axes). The inhibition is then calculated by fitting the following 4-parameter sigmoidal function (Morgan-Mercer-Flodin (MMF) model) to the raw data points using the least squares method:
(§6) [formula] wherein, A is the maximum y value, B is the EC50 factor determined using XLFit, C is the minimum y value and D is the slope value.
(§7) EC50 values for compounds claimed herein were tested with the G402-based assay system described. Cyp11B2 enzyme activity was tested in presence of 1 μM Deoxycorticosterone and variable amounts of inhibitors; Cyp11B1 enzyme activity was tested in presence of 1 μM Deoxycortisol and variable amounts of inhibitors.

human CYP11B2 = human CYP11B2 (Homo sapiens (Human), UniProt P19099); experiment: G-402 cellular enzyme assay, human CYP11B2 (aldosterone release, HTRF); assay type: cell-based; conditions: G-402 cells expressing human CYP11B2; 1 μM Deoxycorticosterone
Sequence of human CYP11B2 (P19099 25-503): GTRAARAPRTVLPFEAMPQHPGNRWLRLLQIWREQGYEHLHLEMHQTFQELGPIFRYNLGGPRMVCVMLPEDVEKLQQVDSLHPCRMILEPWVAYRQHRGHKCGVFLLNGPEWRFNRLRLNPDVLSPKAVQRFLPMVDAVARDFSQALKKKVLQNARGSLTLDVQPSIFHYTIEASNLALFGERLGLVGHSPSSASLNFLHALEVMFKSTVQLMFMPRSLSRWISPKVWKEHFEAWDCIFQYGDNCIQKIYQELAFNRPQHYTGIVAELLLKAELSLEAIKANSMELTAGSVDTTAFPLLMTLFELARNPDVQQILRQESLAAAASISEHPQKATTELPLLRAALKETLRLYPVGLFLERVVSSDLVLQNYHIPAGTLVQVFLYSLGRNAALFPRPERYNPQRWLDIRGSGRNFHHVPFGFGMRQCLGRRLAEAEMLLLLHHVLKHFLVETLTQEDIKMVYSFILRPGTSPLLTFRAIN
Description: as §1, §2, §3, §4, §5, §6, §7

Sequence of human CYP11B1 (P15538 25-503): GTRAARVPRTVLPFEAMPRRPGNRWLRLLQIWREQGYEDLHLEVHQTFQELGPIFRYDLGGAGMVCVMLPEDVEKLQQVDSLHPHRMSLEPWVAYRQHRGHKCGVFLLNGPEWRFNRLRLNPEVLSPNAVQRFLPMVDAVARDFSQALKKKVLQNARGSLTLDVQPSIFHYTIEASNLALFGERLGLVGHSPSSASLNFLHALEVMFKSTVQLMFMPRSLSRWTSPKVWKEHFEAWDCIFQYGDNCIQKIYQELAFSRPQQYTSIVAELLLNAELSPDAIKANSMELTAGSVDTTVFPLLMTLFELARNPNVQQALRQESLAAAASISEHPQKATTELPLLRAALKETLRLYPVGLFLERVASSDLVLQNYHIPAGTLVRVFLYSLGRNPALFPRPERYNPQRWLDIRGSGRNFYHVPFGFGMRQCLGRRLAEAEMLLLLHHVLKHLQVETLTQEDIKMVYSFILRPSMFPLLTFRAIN

SMILES | EC50 (human CYP11B1) [µM] | EC50 (human CYP11B2) [µM]
N#Cc1ccc(Oc2cn[nH]c2C2CCCN(C(=O)c3cccnc3)C2)cc1 (racemic) [Example 64, (rac)-4-[[3-[1-(Pyridine-3-carbonyl)piperidin-3-yl]-1H-pyrazol-4-yl]oxy]benzonitrile] | 8.16 | 0.405
N#Cc1ccc(Oc2cn[nH]c2-c2ccccc2OCc2ccccc2)cc1 [Example 41, 4-[[5-(2-Phenylmethoxyphenyl)-1H-pyrazol-4-yl]oxy]benzonitrile] | 0.0005 | 0.0001
Cn1cc(C(=O)N2CCCC(c3[nH]ncc3Oc3ccc(C#N)cc3F)C2)cn1 (racemic) [Example 89, (rac)-3-Fluoro-4-[[5-[1-(1-methylpyrazole-4-carbonyl)piperidin-3-yl]-1H-pyrazol-4-yl]oxy]benzonitrile] | 7.76 | 0.231
N#Cc1ccc(Oc2cn[nH]c2-c2cccc(Cl)c2F)cc1 [Example 30, 4-[[5-(3-Chloro-2-fluorophenyl)-1H-pyrazol-4-yl]oxy]benzonitrile] | 0.191 | 0.008
Fc1cc(Cl)ccc1-c1[nH]ncc1Oc1ccc(Cl)cc1 [Example 11, 5-(4-Chloro-2-fluorophenyl)-4-(4-chlorophenoxy)-1H-pyrazole] | 0.433 | 0.0458
N#Cc1ccc(Oc2cn[nH]c2-c2ccccc2OCc2cccnc2)cc1 [Example 77, 4-[[3-[2-(Pyridin-3-ylmethoxy)phenyl]-1H-pyrazol-4-yl]oxy]benzonitrile] | 0.0114 | 0.0003
N#Cc1ccc(Oc2cn[nH]c2-c2ccccc2OCc2ccncc2)cc1 [Example 76, 4-[[3-[2-(Pyridin-4-ylmethoxy)phenyl]-1H-pyrazol-4-yl]oxy]benzonitrile] | 0.0068 | 0.0002
Fc1cccc(-c2[nH]ncc2Oc2ccc(Cl)cc2)c1Cl [Example 34, 5-(2-Chloro-3-fluorophenyl)-4-(4-chlorophenoxy)-1H-pyrazole] | 0.262 | 0.0392
Cn1cc(C(=O)N2CCN(Cc3[nH]ncc3Oc3ccc(C#N)cc3)CC2)cn1 [Example 88, 4-[[5-[[4-(1-Methylpyrazole-4-carbonyl)piperazin-1-yl]methyl]-1H-pyrazol-4-yl]oxy]benzonitrile] | 25.9 | 0.147
Clc1ccc(Oc2cn[nH]c2-c2ccccc2Cl)cc1 [Example 6, 4-(4-Chlorophenoxy)-5-(2-chlorophenyl)-1H-pyrazole] | 0.0518 | 0.0026
Fc1ccc(-c2[nH]ncc2Oc2ccc(Cl)cc2)c(F)c1 [Example 15, 4-(4-Chlorophenoxy)-5-(2,4-difluorophenyl)-1H-pyrazole] | 0.159 | 0.0186
N#Cc1ccc(Oc2cn[nH]c2-c2cccc(F)c2F)cc1 [Example 29, 4-[[5-(2,3-Difluorophenyl)-1H-pyrazol-4-yl]oxy]benzonitrile] | 0.161 | 0.0075
N#Cc1ccc(Oc2cn[nH]c2-c2cccc(COc3cccnc3)c2)cc1 [Example 70, 4-[[3-[3-(Pyridin-3-yloxymethyl)phenyl]-1H-pyrazol-4-yl]oxy]benzonitrile] | 0.0383 | 0.0106
N#Cc1ccc(Oc2cn[nH]c2-c2ccccc2C(=O)O)cc1 [Example 40, 2-[4-(4-Cyanophenoxy)-1H-pyrazol-3-yl]benzoic acid] | > 30 | 1.5
N#Cc1ccc(Oc2cn[nH]c2-c2cccc(OCc3ccnc(Cl)c3)c2)cc1 [Example 55, 4-[[3-[3-[(2-Chloropyridin-4-yl)methoxy]phenyl]-1H-pyrazol-4-yl]oxy]benzonitrile] | 0.288 | 0.0331
Fc1cc(Cl)ccc1-c1[nH]ncc1Oc1ccc(C(F)(F)F)cc1 [Example 27, 5-(4-Chloro-2-fluorophenyl)-4-[4-(trifluoromethyl)phenoxy]-1H-pyrazole] | 3.32 | 0.575
CC(=O)N1CCC(Oc2cccc(-c3[nH]ncc3Oc3ccc(C#N)cc3)c2)C1 (racemic) [Example 58, (rac)-4-[[3-[3-(1-Acetylpyrrolidin-3-yl)oxyphenyl]-1H-pyrazol-4-yl]oxy]benzonitrile] | 1.51 | 0.215

SMILES | EC50 (human CYP11B1) [µM] | EC50 (human CYP11B2) [µM]
Cn1cc(COc2cccc(-c3[nH]ncc3Oc3ccc(C#N)cc3)c2)cn1 [Example 56, 4-[[3-[3-[(1-Methylpyrazol-4-yl)methoxy]phenyl]-1H-pyrazol-4-yl]oxy]benzonitrile] | 0.0936 | 0.0095
COc1ccc(-c2[nH]ncc2Oc2ccc(Cl)cc2)c(OC)c1 [Example 5, 4-(4-Chlorophenoxy)-3-(2,4-dimethoxyphenyl)-1H-pyrazole] | 0.0116 | 0.0025
COc1ccccc1CCc1[nH]ncc1Oc1ccc(C#N)cc1 [Example 60, 4-[[3-[2-(2-Methoxyphenyl)ethyl]-1H-pyrazol-4-yl]oxy]benzonitrile] | 1 | 0.054
N#Cc1ccc(Oc2cn[nH]c2-c2cccc(CN3CC(F)(CO)C3)c2)cc1 [Example 74, 4-[[3-[3-[[3-Fluoro-3-(hydroxymethyl)azetidin-1-yl]methyl]phenyl]-1H-pyrazol-4-yl]oxy]benzonitrile] | 0.0362 | 0.0197
N#Cc1ccc(Oc2cn[nH]c2-c2cccc(C[n+]3cccc([O-])c3)c2)cc1 [Example 71, 1-[[3-[4-(4-Cyanophenoxy)-1H-pyrazol-3-yl]phenyl]methyl]pyridin-1-ium-3-olate] | 5.88 | 0.656
N#Cc1ccc(Oc2cn[nH]c2-c2cccc(COc3cccc(F)n3)c2)cc1 [Example 69, 4-[[3-[3-[(6-Fluoropyridin-2-yl)oxymethyl]phenyl]-1H-pyrazol-4-yl]oxy]benzonitrile] | 0.0477 | 0.0169
N#Cc1ccc(Oc2cn[nH]c2-c2ccccc2Cl)cc1 [Example 25, 4-[[5-(2-Chlorophenyl)-1H-pyrazol-4-yl]oxy]benzonitrile] | 0.0185 | 0.0002
Fc1cc(C(F)(F)F)ccc1-c1[nH]ncc1Oc1ccc(Cl)cc1 [Example 13, 4-(4-Chlorophenoxy)-5-[2-fluoro-4-(trifluoromethyl)phenyl]-1H-pyrazole] | 2.47 | 0.408
N#Cc1ccc(Oc2cn[nH]c2-c2cccc(CO)c2)cc1 [Example 49, 4-[[3-[3-(Hydroxymethyl)phenyl]-1H-pyrazol-4-yl]oxy]benzonitrile] | 0.085 | 0.0132
N#Cc1ccc(Oc2cn[nH]c2-c2cccc(OCc3cccnc3)c2)cc1 [Example 51, 4-[[3-[3-(Pyridin-3-ylmethoxy)phenyl]-1H-pyrazol-4-yl]oxy]benzonitrile] | 0.0513 | 0.0095
CSc1ccc(-c2[nH]ncc2Oc2ccc(Cl)cc2)c(Cl)c1 [Example 17, 5-(2-Chloro-4-methylsulfanylphenyl)-4-(4-chlorophenoxy)-1H-pyrazole] | 0.522 | 0.0608
N#Cc1ccc(Oc2cn[nH]c2-c2ccccc2Cl)c(F)c1 [Example 28, 4-[[5-(2-Chlorophenyl)-1H-pyrazol-4-yl]oxy]-3-fluorobenzonitrile] | 0.134 | 0.0015
N#Cc1ccc(Oc2cn[nH]c2-c2cccc(CN3CCOCC3)c2)cc1 [Example 75, 4-[[3-[3-(Morpholin-4-ylmethyl)phenyl]-1H-pyrazol-4-yl]oxy]benzonitrile] | 0.139 | 0.0085
N#Cc1ccc(Oc2cn[nH]c2-c2cccc(Cn3ccc(=O)cc3)c2)cc1 [Example 72, 4-[[3-[3-[(4-Oxopyridin-1-yl)methyl]phenyl]-1H-pyrazol-4-yl]oxy]benzonitrile] | 19.3 | 1.63
COc1ccc(Oc2cn[nH]c2-c2ccc(Cl)cc2)cc1 [Example 2, 3-(4-Chlorophenyl)-4-(4-methoxyphenoxy)-1H-pyrazole] | 1.97 | 0.463
N#Cc1ccc(Oc2cn[nH]c2-c2cccc(C(=O)N3CC(CO)C3)c2)cc1 [Example 47, 4-[[3-[3-[3-(Hydroxymethyl)azetidine-1-carbonyl]phenyl]-1H-pyrazol-4-yl]oxy]benzonitrile] | 0.159 | 0.281
